Earlier results as cited in patent US20100317522A1, “Adjuvants for Agrochemical Applications” (COGNIS IP […], priority 2007, published 2010).

Details: rat, oral (WHO)

## O=C(O)CNCP(=O)(O)O [Glyphosate, N-(phosphonomethyl)glycine]
  LD50: 4320 mg/kg
